Measured values reported in patent US11549123B2, “Plant EPSP synthases and methods of use” (PIONEER HI-BRED INTERNATIONAL, INC., priority 2015, dated 2023).

Assays:
[1] = target: T1, Zea mays EPSPS variant WT-FS-E (102A 302S 391G 438R) (Zea mays, UniProt O24566, E301S/E390G/G101A/V437R); assay: EPSPS substrate saturation kinetics, WT-FS-E; assay type: biochemical
T1 sequence (O24566 with tags, fused parts or gaps G101A/E301S/E390G/V437R): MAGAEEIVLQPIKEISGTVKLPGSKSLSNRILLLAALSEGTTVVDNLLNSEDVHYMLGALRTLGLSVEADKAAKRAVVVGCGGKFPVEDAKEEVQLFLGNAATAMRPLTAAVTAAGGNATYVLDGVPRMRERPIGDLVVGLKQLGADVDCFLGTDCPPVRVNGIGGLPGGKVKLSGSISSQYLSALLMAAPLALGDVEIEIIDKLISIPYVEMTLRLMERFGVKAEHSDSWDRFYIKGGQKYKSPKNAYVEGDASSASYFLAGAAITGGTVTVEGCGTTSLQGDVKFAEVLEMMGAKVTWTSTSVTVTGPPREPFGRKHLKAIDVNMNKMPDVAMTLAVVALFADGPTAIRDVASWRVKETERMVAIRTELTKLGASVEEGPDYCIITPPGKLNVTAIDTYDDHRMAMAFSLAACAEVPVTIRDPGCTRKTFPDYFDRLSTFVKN
Procedure: EPSPS activity was determined by quantifying the phosphate generated from the EPSPS reaction. Release of inorganic phosphate was coupled to reaction with 2-amino-6-mercapto-7-methylpurine ribonucleoside, catalyzed by purine-nucleoside phosphorylase (M R Webb, Proc. Natl. Acad. Sci. 89:4884-4887, 1992). The absorbance change that occurs was monitored at 360 nm, where the extinction is 11,200 M^−1 cm^−1, with a Spectramax plate reader (Molecular Devices). To determine kinetic parameters, the varied substrate was present at seven concentrations (the eighth being the blank, containing no substrate) ranging from 4 to 400 uM and the unvaried substrate present at saturation. Six microliters of 50-fold concentrated stock solutions of the varied substrate were placed in the wells of the 96-well assay plate and reactions were started with the addition of a mixture containing 25 mM Hepes, pH 7, 100 mM KCl, 0.3 mM 2-amino-6-mercapto-7-methylpurine ribonucleosde, 1 uM (1 unit/ml) purine-nucleoside phosphorylase (Sigma N8264) and 200 uM of the non-varied substrate. Reactions were monitored with a Spectramax plate reader. […] KI was then calculated from the following form of the Michaelis-Menten equation for competitive inhibition: KI=KM[I]/(KM app−KM) KM approximates the dissociation constant of the enzyme-substrate complex while kcat is the rate of conversion of substrate to product when the substrate concentration is saturating. kcat/KM is a widely accepted parameter for catalytic efficiency when substrate concentration is low (˜KM). […] The parameter kcat/KM×KI is used to quantify both catalytic efficiency and insensitivity and thus the overall fitness of the enzyme. […]
The vector DNA of the library was transformed into the BL21(DE3) Tuner AroA knockout strain and the cells were plated onto M9 medium containing 50 mM glyphosate. A small aliquot of the transformed cells was plated on LB, by which it was determined that 1.1×10^8 colony forming units, or 20% of the theoretical library size, were plated and screened. […]

[2] = test system: Type II EPSPS from Agrobacterium sp. strain CP4; conditions: read-out: KM for PEP; U.S. Pat. No. 5,633,435; cited from earlier work
[3] = test system: Glycine max (93Y21) hairy root; assay: Hairy root growth from transformed soybean cotyledons with or without 25 uM glyphosate; assay type: cell-based; conditions: medium containing 25 uM glyphosate
[4] = target: T2, Zea mays EPSPS variant Zm-H6 (868-H6) with A69V (H6-A69V) (Zea mays, UniProt O24566, A1R/A3W/A415G/A68V/A71Q/D401G/E301S/E390G/G101A/I207L/K83R/L97C/T278A/T360S/T440Q/V437R); assay: Substrate saturation kinetic analysis with glyphosate, H6-A69V; assay type: biochemical
T2 sequence (O24566 with tags, fused parts or gaps A1R/A3W/A68V/A71Q/K83R/L97C/G101A/I207L/T278A/E301S/T360S/E390G/D401G/A415G/V437R/T440Q): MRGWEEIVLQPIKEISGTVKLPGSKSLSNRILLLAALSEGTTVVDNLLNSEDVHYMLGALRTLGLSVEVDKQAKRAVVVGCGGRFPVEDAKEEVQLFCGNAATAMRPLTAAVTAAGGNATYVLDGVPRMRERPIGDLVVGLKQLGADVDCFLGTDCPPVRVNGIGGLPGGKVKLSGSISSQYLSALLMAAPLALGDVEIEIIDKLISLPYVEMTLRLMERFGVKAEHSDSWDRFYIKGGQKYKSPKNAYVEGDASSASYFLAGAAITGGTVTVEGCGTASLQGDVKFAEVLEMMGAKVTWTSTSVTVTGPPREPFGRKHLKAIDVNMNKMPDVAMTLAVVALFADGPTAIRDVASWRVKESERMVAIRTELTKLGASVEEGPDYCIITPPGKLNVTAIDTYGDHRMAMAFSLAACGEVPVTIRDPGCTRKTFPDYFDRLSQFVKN

| SMILES | improvement in KM for PEP ([1]; compared to G102A alone) [fold] | Km [2] [µM] | root growth of untransformed cotyledons [3] | Ki [4] [µM] | (kcat/KM)*KI ([4]; substrate saturation, H6-A69V) | Ki [1] [µM] | (kcat/KM)*KI ([1]; PEP as substrate, glyphosate as inhibitor) |
| --- | --- | --- | --- | --- | --- | --- | --- |
| C=C(OP(=O)(O)O)C(=O)O [PEP, phosphoenolpyruvate] | 2 | 12 | – | – | – | – | – |
| O=C(O)CNCP(=O)(O)O [glyphosate, N-phosphonomethylglycine] | – | – | no growth | 320 | 2440 | 1150 | 2763 |
